In one assay the target is T1, B2 bradykinin receptor (Homo sapiens, UniProt P30411).
T1 sequence (P30411 whole entry): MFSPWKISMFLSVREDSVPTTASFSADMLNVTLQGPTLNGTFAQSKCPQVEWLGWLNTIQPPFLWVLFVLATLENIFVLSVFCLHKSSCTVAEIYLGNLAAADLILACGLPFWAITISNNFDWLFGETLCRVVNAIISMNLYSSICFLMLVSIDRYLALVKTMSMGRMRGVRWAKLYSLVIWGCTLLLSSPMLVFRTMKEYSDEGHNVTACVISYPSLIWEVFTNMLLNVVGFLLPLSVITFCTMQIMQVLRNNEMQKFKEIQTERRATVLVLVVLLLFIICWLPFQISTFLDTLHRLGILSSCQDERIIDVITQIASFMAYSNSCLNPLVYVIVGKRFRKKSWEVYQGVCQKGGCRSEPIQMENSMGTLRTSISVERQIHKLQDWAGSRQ
In words: Binding affinity towards human bradykinin B2 receptor (membranes from Cos-7 cells expressing human B2 receptor) using [3H]-BK as radioligand. Format: cell membranes.

The target of assay [1] is T2, B2 bradykinin receptor (Homo sapiens) (UniProt P30411).
T2 sequence (whole entry): T1 sequence (P30411 whole entry)
Put plainly: Binding affinity towards human bradykinin B2 receptor (membranes from Cos-7 cells expressing human B2 receptor) using [3H]BK as radioligand. Format: cell membranes. The note with it: concentration not given here.

Turning to `NC(N)=Nc1cccc(CN2C(=O)C(Cc3ccccc3)N=C(c3ccccc3)c3ccccc32)c1` (centres undefined), the Ki on B2 bradykinin receptor was determined as 8.9 µM.

At B2 bradykinin receptor, `N=C(N)Nc1cccc(CN2C(=O)[C@@H](Cc3ccccc3)N=C(c3ccccc3)c3ccccc32)c1` showed a Ki of 11.9 µM. As for `N=C(N)NCCCCN1C(=O)C(Cc2ccccc2)N=C(c2ccccc2)c2ccccc21` (centres undefined), the Ki at B2 bradykinin receptor was 21.3 µM. With `N=C(N)Nc1ccc(N2C(=O)C(Cc3ccccc3)N=C(c3ccccc3)c3ccccc32)cc1` (centres undefined), on B2 bradykinin receptor, the affinity, expressed as Ki, was 9.2 µM.

Consider `Nc1cccc(CN2C(=O)C(Cc3ccccc3)N=C(c3ccccc3)c3ccccc32)c1` (centres undefined), for which the Ki on B2 bradykinin receptor was over 100 µM. As for `NC(N)=Nc1cccc(CN2C(=O)[C@H](Cc3ccccc3)N=C(c3ccccc3)c3ccccc32)c1`, on B2 bradykinin receptor, the Ki came to 15.8 µM. Consider `NCCCCN1C(=O)C(Cc2ccccc2)N=C(c2ccccc2)c2ccccc21` (centres undefined), for which the inhibition in assay [1] amounted to 26%.

As to `O=C(O)CN1C(=O)C(Cc2ccccc2)N=C(c2ccccc2)c2ccccc21` (centres undefined), the Ki on B2 bradykinin receptor is over 100 µM. Still for that read-out and setting: for `O=C1Nc2ccccc2C(c2ccccc2)=NC1Cc1ccccc1` (centres undefined) the value was over 100 µM.
